Results published in US6468977B1, “Thiadiazole compounds useful as inhibitors of cysteine activity dependent enzymes” (Apotex Inc., priority 1998, dated 2002).
Where a name gives a salt, the structure may show the parent alone.

Columns and labels:
[1] = target: T1, Cathepsin B (Homo sapiens, UniProt P07858); assay: Inhibition of cathepsin B, enzyme inactivation kinetics; format: biochemical; details: 25° C.; for k3 / k3/Ki (second order rate of inhibition) / kinact/KI: pH 6.0; for Ki: pH 6.0, substrate N-Cbz-Phe-Arg 7-amido-4-methylcoumarin 100 μM; for kinact/KI: read-out: k3/Ki (second order rate of inhibition)
T1 construct: purchased Athens Research and Technology, Inc
Method: Enzyme assays and kinetic measurements.
Enzyme regeneration. Cathepsin B (Athens Research and Technology, Inc.) was regenerated by incubation with 2.5 mM dithioerythritol, 2.5 mM EDTA and 0.005% (v/v) Brij-35 in 50 mM potassium phosphate pH 6.0 for 5 min. at 25° C. The excess of dithioerythritol was removed by size exclusion chromatography on a NAP-10 column (Pharmacia) equilibrated with 20 mM sodium acetate pH 5.0 containing 10 mM EDTA. Enzyme activated in this way was used within several hours.
Measurement of inactivation constants:
The reactions were incubated at 25° C. […] The reaction progress curves were recorded continuously over five half-lives. […] Briefly, the reaction progress curves were analyzed by non-linear regression to the exponential equation (2) and pseudo-first order rate coefficients (kapp.) were calculated for each inhibitor concentration. [drawing 36] Fluorescence=Ae^−k^app.^t+B (2)
Second order rate for inhibition (ki/Ki), ki and Ki were determined from equation (3) by plotting (I/kapp.) vs. [I]; [formula]
where Km is the Michaelis-Menten constant, [I] is inhibitor concentration and [S] is substrate concentration.

[2] = tested on: IL-1 induced proteoglycan degradation of articular cartilage; assay: IL-1-induced proteoglycan degradation of articular cartilage explants in vitro; format: cell-based, calf; details: 1×10^−6 M, IL-1 50 ng/ml, 72 h, p=0.023
Method: The effect of Apo501 on IL-1 (interleukin) induced proteoglycan degradation of articular cartilage from normal calf joints was investigated in-vitro. Articular cartilage was sliced aseptically from the distal forelimb joints of less than 6-month old calves. […] The pooled, punched cartilage was washed and incubated in 20 ml of Ham's F12 medium with 5% FBS and 3% antibiotics for 72 hr at 37° C. for recovery.
Recovered explants were washed and replaced with a fresh medium. 20 μl (10 μCi/ml) of sodium [^35S] sulfate was added and cartilage explants incubated for 72 h at 37° C. to radiolabel proteoglycans. The explants was washed thoroughly (5 times) to remove free radioisotope and incubated in serum free, F-12 medium (3% Ab) overnight. Explants were then incubated in quadruplicate in fresh, serum free mediums containing varied concentrations of Apo-501 (10^−7, 10^−6, 10^−5, and 10^−4) for 24 h. […] The extent of proteoglycan degradation in each cartilage treated with different concentrations of Apo501 was determined by measuring the radioactivity of [^35S] sulfate-glycosaminoglycans by a liquid scintillation counter. Sample of 100 μl medium was added to 5 ml of scintillation cocktail (Ready Safe, Beckmann) and counted. Proteoglycan degradation was expressed as radiolabelled glycosaminoglycans released into the media (counts per min per ml) per dry weight (mg) of cartilage.

[3] = tested on: Transglutaminase; assay: Inhibition of transglutaminase, hydroxamate procedure, residual activity; format: biochemical; details: 100 μM (0.1 mM, 10% MeOH), one hour of incubation
Method: Inhibition of transglutaminase by compounds of formula I (Enzyme Assay).
Transglutaminase activity is measured by the […] hydroxamate procedure (J. Biol. Chem., 1971, 246, 1093). The tested compounds were dissolved in methanol and added to a buffered solution of purified Transglutaminase to give a final concentration of 0.1 mM (10% MeOH). After on hour of incubation, the solution was assayed for residual activity using the standard activity assay.

Row | SMILES | k3 [1] [s⁻¹] | k3/Ki (second order rate of inhibition) [1] [M⁻¹ s⁻¹] | Ki [1] [µM] | Reduction of IL-1-induced degradation of newly synthesized proteoglycan [2] [%] | kinact/KI [1] [M⁻¹ s⁻¹] | melting point [°C] | Inhibition of the enzyme (residual activity) [3]
1 | COc1nsc(NC(=O)[C@H](Cc2ccccc2)NC(=O)OCc2ccccc2)n1 [apo201, 3-methoxy-5-(N-carbobenzyloxy-L-phenylalaninamido)-[1,2,4]thiadiazole] | 0.013 | 658 | 21 | – | – | – | –
2 | COc1nsc(N[C@@H](CC(C)C)C(=O)N2CCC[C@H]2C(=O)O)n1 [apo501, N-{(3-methoxy)-[1,2,4]thiadiazol-5-yl}-L-leucyl-L-proline. tris(hydroxymethyl)methylamine salt] | 0.015 | – | 2.6 | 60 | 5630 | – | –
3 | CC(C)CC(Nc1nc(C(=O)O)ns1)C(=O)N1CCCC1C(=O)O (stereo not shown) [apo310] | 0.089 | – | 300 | – | 293 | – | –
4 | CC[C@H](C)[C@H](Nc1nc(OC)ns1)C(=O)N1CCC[C@H]1C(=O)OC [Example 12A, N-(3-methoxy-[1,2,4]thiadiazol-5-yl)-L-iso-leucyl-L-proline methyl ester] | – | – | – | – | – | 129 to 130 | –
5 | COc1nsc(NC(=O)[C@H](C)NC(=O)[C@H](Cc2ccccc2)NC(=O)OCc2ccccc2)n1 [apo504, 3-methoxy-5-(N-carbobenzyloxy-L-phenylalanyl-L-alaninamido)-[1,2,4]thiadiazole] | 0.032 | – | 37 | – | 864 | 161 to 162 | completely inhibits
6 | CC[C@H](C)[C@H](Nc1nc(C(=O)c2ccccc2)ns1)C(=O)N1CCC[C@H]1C(=O)O [Example 16, N-[3-benzoyl-[1,2,4]thiadiazol-5-yl]-L-iso-leucyl-L-proline] | – | – | – | – | – | 132 to 134 | –
7 | CC(C)C[C@H](Nc1nc(-c2ccccc2)ns1)C(=O)N1CCC[C@H]1C(=O)O [apo5O9, N-(3-Phenyl-[1,2,4]thiadiazol-5-yl)-L-leucyl-L-proline] | 0.013 | – | 74 | – | 175 | – | –
8 | COc1nsc(NC(=O)N[C@@H](CC(C)C)C(=O)N2CCC[C@H]2C(=O)O)n1 [apo503] | 0.014 | 36 | 390 | – | – | – | –
9 | CC[C@H](C)[C@H](Nc1nc(OC)ns1)C(=O)N1CCC[C@H]1C(=O)O [Example 13, N-(3-methoxy-[1,2,4]thiadiazol-5-yl)-L-iso-leucyl-L-proline] | – | – | – | – | – | 112 to 114 | –
10 | COc1nsc(NC(=O)NC(CC(C)C)C(=O)NCCC(C)C)n1 (stereo not shown) [apo1073, 5-{3-methoxy-1,2,4-thiadiazolyl}carbamoyl-leucyl isoamylamide] | 0.032 | 84 | 367 | – | – | – | –
11 | COc1nsc(N[C@@H](CC(C)C)C(=O)N2CCC[C@H]2C(=O)O)n1 [Example 11A, N-(3-methoxy-[1,2,4]thiadiazol-5-yl)-L-leucyl-L-proline] | – | – | – | – | – | 89 to 92 | –
12 | Cc1nsc(N[C@@H](CC(C)C)C(=O)N2CCC[C@H]2C(=O)O)n1 [apo510, N-(3-Methyl-[1,2,4]thiadiazol-5-yl)-L-leucyl-L-proline] | 0.026 | – | 447 | – | 55 | – | –
